Experiments:
HCC1954 = assay: Growth inhibition of human HCC1954 cells after 5 days by SRB assay; assay type: functional
MCF7 = assay: Growth inhibition of human MCF7 cells after 5 days by SRB assay; assay type: functional
MDA-MB-231 = assay: Growth inhibition of human MDA-MB-231 cells after 5 days by SRB assay; assay type: functional
MDA-MB-468 = assay: Growth inhibition of human MDA-MB-468 cells after 5 days by SRB assay; assay type: functional
[1] = Half life in mouse liver microsomes
Cytochrome P450 2C19 = Cytochrome P450 2C19 (Homo sapiens, UniProt P33261); assay: Inhibition of CYP2C19 (unknown origin) by fluorescence assay
Cytochrome P450 3A4 [2] = molecular target: T1, Cytochrome P450 3A4 (Homo sapiens, UniProt P08684); assay: Inhibition of CYP3A4 (unknown origin) using DBF as substrate by fluorescence assay
Cytochrome P450 3A4 [3] = molecular target: T1, Cytochrome P450 3A4; assay: Inhibition of CYP3A4 (unknown origin) using BFC as substrate by fluorescence assay
[4] = Half life in human liver microsomes
[5] = Cmax in athymic CD1 nude mouse at 25 mg/kg, po by LC/MS/MS analysis; assay type: ADME, organism-based; set-up: dose 25 mg/kg, route oral; details: in vivo
Cytochrome P450 2D6 = Cytochrome P450 2D6 (Homo sapiens, UniProt P10635); assay: Inhibition of CYP2D6 (unknown origin) by fluorescence assay; assay type: ADME
Cytochrome P450 2C9 = Cytochrome P450 2C9 (Homo sapiens, UniProt P11712); assay: Inhibition of CYP2C9 (unknown origin) by fluorescence assay
[6] = Half life in rat liver microsomes; details: liver microsomes
[7] = Half life in dog liver microsomes; details: liver microsomes
[8] = molecular target: T2, Serine/threonine-protein kinase PLK4 (Homo sapiens, UniProt O00444); assay: Inhibition of PLK4 (unknown origin) by ELISA
T2 sequence (O00444 whole entry): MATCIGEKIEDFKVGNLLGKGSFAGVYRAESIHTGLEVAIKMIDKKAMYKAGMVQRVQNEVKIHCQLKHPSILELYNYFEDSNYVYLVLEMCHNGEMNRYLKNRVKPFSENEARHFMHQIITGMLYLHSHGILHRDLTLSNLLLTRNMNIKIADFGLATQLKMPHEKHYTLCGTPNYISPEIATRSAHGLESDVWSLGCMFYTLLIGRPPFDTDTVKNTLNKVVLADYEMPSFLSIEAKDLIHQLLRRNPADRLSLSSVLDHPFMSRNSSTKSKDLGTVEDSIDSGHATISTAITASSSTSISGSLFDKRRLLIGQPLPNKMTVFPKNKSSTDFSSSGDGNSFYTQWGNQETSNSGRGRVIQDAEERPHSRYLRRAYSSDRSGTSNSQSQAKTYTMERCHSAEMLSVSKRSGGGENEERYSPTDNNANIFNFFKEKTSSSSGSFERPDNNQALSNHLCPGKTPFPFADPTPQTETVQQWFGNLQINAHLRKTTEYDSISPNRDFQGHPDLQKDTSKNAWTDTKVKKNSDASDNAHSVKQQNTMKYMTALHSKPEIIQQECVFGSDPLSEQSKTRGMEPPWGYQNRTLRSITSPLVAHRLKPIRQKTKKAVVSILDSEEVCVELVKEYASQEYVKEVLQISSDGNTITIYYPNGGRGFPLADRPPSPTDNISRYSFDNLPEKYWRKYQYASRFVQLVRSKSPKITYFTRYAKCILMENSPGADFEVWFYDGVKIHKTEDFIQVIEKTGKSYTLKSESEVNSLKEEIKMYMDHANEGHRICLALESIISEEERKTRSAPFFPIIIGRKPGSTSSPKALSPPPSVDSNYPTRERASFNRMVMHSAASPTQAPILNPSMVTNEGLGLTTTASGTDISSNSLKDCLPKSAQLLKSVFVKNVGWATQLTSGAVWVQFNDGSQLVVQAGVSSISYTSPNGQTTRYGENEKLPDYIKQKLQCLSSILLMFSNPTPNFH

Cytochrome P450 1A2 = molecular target: T3, Cytochrome P450 1A2 (Homo sapiens, UniProt P05177); assay: Inhibition of CYP1A2 (unknown origin) by fluorescence assay; assay type: ADME
T3 sequence (P05177 whole entry): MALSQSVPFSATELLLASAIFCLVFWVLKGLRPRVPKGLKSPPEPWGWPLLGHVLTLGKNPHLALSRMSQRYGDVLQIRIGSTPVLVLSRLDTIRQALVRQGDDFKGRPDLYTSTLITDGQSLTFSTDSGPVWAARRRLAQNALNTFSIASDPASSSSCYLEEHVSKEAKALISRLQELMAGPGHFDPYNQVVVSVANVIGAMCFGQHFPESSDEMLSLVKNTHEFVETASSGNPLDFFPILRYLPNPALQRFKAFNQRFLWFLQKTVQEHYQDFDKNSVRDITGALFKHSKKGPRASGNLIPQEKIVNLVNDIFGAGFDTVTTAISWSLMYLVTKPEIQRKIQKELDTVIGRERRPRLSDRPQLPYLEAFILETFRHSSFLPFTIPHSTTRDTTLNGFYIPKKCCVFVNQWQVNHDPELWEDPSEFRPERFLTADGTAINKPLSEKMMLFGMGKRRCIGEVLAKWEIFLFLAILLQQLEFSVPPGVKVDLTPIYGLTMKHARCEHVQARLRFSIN

[9] = AUC in athymic CD1 nude mouse at 25 mg/kg, po by LC/MS/MS analysis; assay type: ADME, organism-based; set-up: dose 25 mg/kg, route oral; details: plasma
[10] = Growth inhibition of human HMEC cells after 5 days by SRB assay; assay type: cell-based; details: HMEC cells
[11] = Homo sapiens, MDA-MB-231, 120 h
[12] = Homo sapiens, MDA-MB-468, 120 h

Sequence of Cytochrome P450 2C9 (P11712 whole entry): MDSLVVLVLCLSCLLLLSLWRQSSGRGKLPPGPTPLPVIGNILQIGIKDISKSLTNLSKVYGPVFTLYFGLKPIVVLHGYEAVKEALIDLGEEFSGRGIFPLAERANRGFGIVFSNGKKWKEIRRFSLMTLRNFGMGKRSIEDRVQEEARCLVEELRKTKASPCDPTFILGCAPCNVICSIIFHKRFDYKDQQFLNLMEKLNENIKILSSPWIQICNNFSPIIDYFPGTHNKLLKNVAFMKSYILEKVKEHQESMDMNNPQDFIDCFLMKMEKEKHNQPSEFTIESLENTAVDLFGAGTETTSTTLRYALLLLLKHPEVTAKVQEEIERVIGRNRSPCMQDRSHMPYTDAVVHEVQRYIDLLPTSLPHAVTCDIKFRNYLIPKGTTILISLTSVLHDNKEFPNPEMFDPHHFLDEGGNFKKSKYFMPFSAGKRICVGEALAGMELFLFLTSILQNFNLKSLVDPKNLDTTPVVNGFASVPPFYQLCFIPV
Sequence of Cytochrome P450 2C19 (P33261 whole entry): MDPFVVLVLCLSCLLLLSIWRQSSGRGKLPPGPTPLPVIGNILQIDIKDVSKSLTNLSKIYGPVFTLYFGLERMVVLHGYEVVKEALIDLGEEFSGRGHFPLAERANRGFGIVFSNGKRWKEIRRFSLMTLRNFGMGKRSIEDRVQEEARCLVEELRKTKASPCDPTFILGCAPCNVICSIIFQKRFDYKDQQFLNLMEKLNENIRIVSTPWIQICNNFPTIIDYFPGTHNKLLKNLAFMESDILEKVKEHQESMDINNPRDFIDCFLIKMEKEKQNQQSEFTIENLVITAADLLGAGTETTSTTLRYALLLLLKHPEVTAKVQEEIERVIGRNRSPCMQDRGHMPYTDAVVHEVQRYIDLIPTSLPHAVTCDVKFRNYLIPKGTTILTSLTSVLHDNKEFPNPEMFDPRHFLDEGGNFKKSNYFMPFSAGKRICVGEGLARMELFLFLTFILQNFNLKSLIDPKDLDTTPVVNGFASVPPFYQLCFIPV
Sequence of Cytochrome P450 2D6 (P10635 whole entry): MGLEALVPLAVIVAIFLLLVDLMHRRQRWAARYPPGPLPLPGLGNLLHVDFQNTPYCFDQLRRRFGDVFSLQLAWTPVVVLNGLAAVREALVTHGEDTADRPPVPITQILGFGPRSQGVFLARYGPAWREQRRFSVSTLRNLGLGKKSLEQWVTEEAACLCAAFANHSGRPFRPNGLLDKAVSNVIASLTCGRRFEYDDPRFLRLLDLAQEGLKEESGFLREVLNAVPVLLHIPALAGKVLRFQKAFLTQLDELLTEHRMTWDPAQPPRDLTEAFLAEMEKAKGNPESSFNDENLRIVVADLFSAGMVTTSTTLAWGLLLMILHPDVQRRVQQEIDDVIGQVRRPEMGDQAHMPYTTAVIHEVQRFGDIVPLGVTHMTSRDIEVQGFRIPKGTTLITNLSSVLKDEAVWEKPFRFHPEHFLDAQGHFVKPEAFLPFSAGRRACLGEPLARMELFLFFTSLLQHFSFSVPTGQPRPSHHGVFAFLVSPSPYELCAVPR
T1 sequence (P08684 whole entry): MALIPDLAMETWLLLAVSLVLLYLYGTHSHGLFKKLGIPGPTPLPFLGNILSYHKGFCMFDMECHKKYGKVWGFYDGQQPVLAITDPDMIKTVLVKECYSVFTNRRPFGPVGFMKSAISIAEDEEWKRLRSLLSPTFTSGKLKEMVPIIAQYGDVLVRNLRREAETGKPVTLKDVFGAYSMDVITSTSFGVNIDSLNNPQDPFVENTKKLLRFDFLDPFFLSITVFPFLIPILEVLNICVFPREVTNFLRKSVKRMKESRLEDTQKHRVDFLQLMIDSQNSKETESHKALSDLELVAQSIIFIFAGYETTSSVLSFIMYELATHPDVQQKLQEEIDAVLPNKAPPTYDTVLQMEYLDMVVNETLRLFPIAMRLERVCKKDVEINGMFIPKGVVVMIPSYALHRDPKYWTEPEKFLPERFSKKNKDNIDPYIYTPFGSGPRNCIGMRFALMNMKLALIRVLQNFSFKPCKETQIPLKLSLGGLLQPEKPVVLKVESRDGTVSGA

SMILES	GI50 (HCC1954; Homo sapiens, HCC1954, 120 h)	half-life ([1]; liver microsomes)	IC50 (Cytochrome P450 2C19)	IC50 (Cytochrome P450 3A4 [2])	half-life ([4]; liver microsomes)	Cmax [5]	inhibition (INH) (Cytochrome P450 2D6)	IC50 (Cytochrome P450 2C9)	GI50 (MCF7; Homo sapiens, MCF7, 120 h)	GI50 (MDA-MB-231; [11])	GI50 (MDA-MB-468; [12])	IC50 [8]	inhibition (INH) (Cytochrome P450 1A2)	AUC [9]	GI50 at 120 h [10]	other results
COc1ccc2c(c1)[C@]1(C[C@H]1c1ccc3c(/C=C/c4ccc(CN5CCOCC5)cc4)n[nH]c3c1)C(=O)N2 (racemic)	–	–	–	–	–	–	–	–	–	–	–	–	–	–	–	GI50 (HCC1954): 7300 nM; GI50 (MCF7): 10 nM; GI50 (MDA-MB-231): 14000 nM; GI50 (MDA-MB-468): 6 nM
COc1ccc2c(c1)[C@]1(C[C@H]1c1ccc3c(/C=C/c4ccc(CN5[C@H](C)CN(C)C[C@@H]5C)cc4)n[nH]c3c1)C(=O)N2	2300 nM	38 min	810 nM	1600 nM	> 60 min	1300 ng/mL	Not Active	560 nM	2500 nM	2200 nM	10 nM	0.39 nM	Not Active	2200 ng·h/mL	–	IC50 (Cytochrome P450 3A4 [3]): 10000 nM; half-life [6]: 49 min; half-life [7]: 39 min
O=C1Nc2ccccc2[C@]12C[C@H]2c1ccc2c(/C=C/c3ccc(CN4CCCOCC4)cc3)n[nH]c2c1	1800 nM	–	–	–	–	–	–	–	1000 nM	3000 nM	2 nM	–	–	–	–	–
CN(C)Cc1ccc(/C=C/c2n[nH]c3cc([C@@H]4C[C@@]45C(=O)Nc4ccccc45)ccc23)cc1 (racemic)	1900 nM	–	–	–	–	–	–	–	–	–	–	–	–	–	28000 nM	GI50 (MDA-MB-231): 12000 nM
COc1ccc2c(c1)[C@]1(C[C@H]1c1ccc3c(/C=C/c4ccc(CN(C)C)cc4)n[nH]c3c1)C(=O)N2	5000 nM	22 min	2000 nM	7500 nM	36 min	300 ng/mL	Not Active	3500 nM	0.1 nM	2800 nM	< 1 nM	–	Not Active	640 ng·h/mL	41000 nM	–
COc1ccc2c(c1)[C@]1(C[C@H]1c1ccc3c(/C=C/c4ccc(CN5CCCCC5)cc4)n[nH]c3c1)C(=O)N2	5000 nM	40 min	1400 nM	5400 nM	49 min	510 ng/mL	Not Active	3400 nM	< 1 nM	1600 nM	< 1 nM	–	Not Active	1300 ng·h/mL	50000 nM	IC50 (Cytochrome P450 3A4 [3]): > 1000 nM
C[C@@H]1CN(Cc2ccc(/C=C/c3n[nH]c4cc([C@@H]5C[C@@]56C(=O)Nc5ccccc56)ccc34)cc2)C[C@H](C)N1C	1300 nM	–	–	–	–	–	–	–	2500 nM	500 nM	10 nM	0.64 nM	–	–	–	–
CN1CCC(Oc2ccc(/C=C/c3n[nH]c4cc([C@@H]5C[C@@]56C(=O)Nc5ccccc56)ccc34)cc2)CC1	770 nM	–	–	–	–	–	–	–	2400 nM	920 nM	2 nM	–	–	–	–	–
O=C1Nc2ccccc2[C@]12C[C@H]2c1ccc2c(/C=C/c3cccnc3)n[nH]c2c1	7500 nM	–	–	–	–	–	–	–	2000 nM	1000 nM	60 nM	–	–	–	4400 nM	–
O=C1Nc2ccccc2[C@]12C[C@H]2c1ccc2c(/C=C/c3cccc(CN4CCOCC4)c3)n[nH]c2c1	1600 nM	–	–	–	–	–	–	–	350 nM	2200 nM	130 nM	–	–	–	50000 nM	–
O=C1Nc2ccccc2[C@]12C[C@H]2c1ccc2c(/C=C/c3ccc(CN4CCCCC4)cc3)n[nH]c2c1	5000 nM	–	–	–	–	–	–	–	< 1 nM	2200 nM	< 1 nM	–	–	–	20000 nM	–

The next lines start with results.

GI50 (HCC1954; Homo sapiens, HCC1954, 120 h)	half-life ([1]; liver microsomes)	IC50 (Cytochrome P450 2C19)	IC50 (Cytochrome P450 3A4 [2])	half-life ([4]; liver microsomes)	Cmax [5]	inhibition (INH) (Cytochrome P450 2D6)	IC50 (Cytochrome P450 2C9)	GI50 (MCF7; Homo sapiens, MCF7, 120 h)	GI50 (MDA-MB-231; [11])	GI50 (MDA-MB-468; [12])	IC50 [8]	inhibition (INH) (Cytochrome P450 1A2)	AUC [9]	SMILES	GI50 at 120 h [10]	other results
53 nM	–	–	–	–	–	–	–	170 nM	4100 nM	61 nM	5.2 nM	–	–	O=C1Nc2ccccc2[C@]12C[C@H]2c1ccc2c(/C=C/c3ccc(CN4CC5CCC(C4)O5)cc3)n[nH]c2c1	–	–
2 nM	6 min	1500 nM	5600 nM	11 min	200 ng/mL	Not Active	2000 nM	< 1 nM	2600 nM	< 1 nM	–	Not Active	380 ng·h/mL	COc1ccc2c(c1)[C@]1(C[C@H]1c1ccc3c(/C=C/c4ccc(N5CCN(C)CC5)nc4)n[nH]c3c1)C(=O)N2	47000 nM	IC50 (Cytochrome P450 3A4 [3]): 10000 nM
7 nM	–	1900 nM	> 1000 nM	–	510 ng/mL	Not Active	2600 nM	1.5 nM	750 nM	2 nM	–	Not Active	1100 ng·h/mL	CN(C)Cc1ccc(/C=C/c2n[nH]c3cc([C@@H]4C[C@@]45C(=O)N(C)c4ccccc45)ccc23)cc1	8000 nM	half-life ([1]; microsomes): 12 min; IC50 (Cytochrome P450 3A4 [3]): 2300 nM; half-life ([4]; microsomes): 44 min
26 nM	–	–	–	–	–	–	–	370 nM	250 nM	< 1 nM	–	–	–	O=C1Nc2ccccc2[C@]12C[C@H]2c1ccc2c(/C=C/c3ccc(CN4CCCC4)cc3)n[nH]c2c1	3600 nM	–
22 nM	17 min	1500 nM	–	52 min	790 ng/mL	Not Active	900 nM	34000 nM	5600 nM	6.7 nM	–	Not Active	1800 ng·h/mL	O=C1Nc2ccccc2[C@]12C[C@H]2c1ccc2c(/C=C/c3ccc(CN4CC[C@@H](F)C4)cc3)n[nH]c2c1	7900 nM	–
260 nM	–	900 nM	2800 nM	–	120 ng/mL	Not Active	1700 nM	20 nM	23 nM	2 nM	0.9 nM	Not Active	340 ng·h/mL	O=C1Nc2ccccc2[C@]12C[C@H]2c1ccc2c(/C=C/c3ccc(N4CCNCC4)cc3)n[nH]c2c1	21000 nM	half-life ([1]; microsomes): 19 min; half-life ([4]; microsomes): 46 min
5 nM	7 min	1200 nM	2900 nM	27 min	700 ng/mL	Not Active	3800 nM	20 nM	600 nM	1 nM	1.3 nM	Not Active	1600 ng·h/mL	CN1CCN(c2ccc(/C=C/c3n[nH]c4cc([C@@H]5C[C@@]56C(=O)N(C)c5ccccc56)ccc34)cn2)CC1	–	IC50 (Cytochrome P450 3A4 [3]): 300 nM
84 nM	–	–	–	–	–	–	–	1300 nM	9600 nM	1100 nM	20 nM	–	–	C[C@@H]1CN(Cc2cccc(/C=C/c3n[nH]c4cc([C@@H]5C[C@@]56C(=O)Nc5ccccc56)ccc34)c2)C[C@H](C)O1	–	–
